Ends that are not written are not given here.
Key:
E. coli K12 [1] = assay: MIC, broth microdilution; format: cell-based, Escherichia coli; settings: strain K12; cation adjusted MHB, 18–24 h
Experimental: Peptides dissolved in sterile distilled water and comparator antibiotics dissolved in the appropriate solvents[38] were added to sterile U-bottom polypropylene 96-well microplates at desired concentrations.

E. coli K12 [2] = assay: SPOT peptide library screen (resazurin fluorescence); format: cell-based, Escherichia coli; design: unit not given here; settings: 75% reduction of fluorescence vs untreated controls; active IC75≤0.25, semi-active 0.25<IC75≤0.50, inactive IC75>0.5
From the text: (§1) The peptides in the created peptide library were synthesized based on the SPOT technique and pure peptides (≥95% purity) were synthesized on resin using solid phase Fmoc peptide chemistry.[16] The 135 peptides in the peptide library were screened for antimicrobial activity using both luminescent (Pseudomonas aeruginosa strain H1001)[34] and non-luminescent (epidemic methicillin resistant S. aureus EMRSA-15, Sal. typhimurium and E. coli K12) bacterial strains. Activity against non-luminescent bacteria strains was assessed by fluorescence readings (excitation/emission spectra of 560/590 nm) after the addition of resazurin dye (100 µm final concentration). The results from the screen were analysed using the MATLAB extension Gait-CAD as previously described.[35] Concentration values with a 75% reduction of luminescence or fluorescence (IC75) in relation to untreated controls were computed.

Sal. typhimurium = assay: as above; format: cell-based, Salmonella enterica serovar Typhimurium; design: unit not given here; settings: 75% reduction of fluorescence vs untreated controls; active IC75≤0.25, semi-active 0.25<IC75≤0.50, inactive IC75>0.5
From the text: as §1

P. aeruginosa H1001 = assay: SPOT peptide library screen (luminescence); format: cell-based, Pseudomonas aeruginosa; design: unit not given here; settings: 75% reduction of luminescence vs untreated controls; active IC75≤0.25, semi-active 0.25<IC75≤0.50, inactive IC75>0.5
From the text: as §1

MRSA strains = settings: sub-MIC levels, 25 days, daily passage
Experimental: To evaluate if populations of AMP-resistant bacteria could be selected, cultures were continuously exposed to Lynronne-1, Lynronne-2 and Lynronne-3 for a duration of 25 days, as previously described.[40] Briefly, broth microdilution susceptibility testing was performed using a standard doubling-dilution series of Lynronne-1, Lynronne-2 and Lynronne-3 concentrations on day 1.

HUVEC and HepG2 cells = settings: for total growth inhibition (TGI): HUVEC and HepG2 cells (cell line not given)
Experimental: Cytotoxic activity of the identified peptides was determined using HUVEC and HEPG2 cells as described previously.[41],[42] […] Significant responses were defined when observed cell growth was ≤50% and tube length was ≤70% using the proliferation and tube formation assays respectively. Permeabilization of eukaryotic membrane by Lynronne-1, Lynronne-2 and Lynronne-3 was also investigated using HepG2 cells as described previously.[43]

[3] = Peptide-lipid interaction with pure lipids, lipid monolayer; format: binding; settings: peptide 1 µg/ml; for Interaction with pure lipids: POPG, cardiolipin, LTA, POPE above POPC, initial surface pressure 30 ± 0.5 mN/m
Experimental: Membrane permeabilsation was evaluated using propidium iodide assay as previously explained,[43] with CTAB as positive control. Peptide–lipid interaction was measured using reconstituted lipid monolayer.[44] Total lipid extract from overnight liquid cultures of MRSA USA300 was obtained by Folch extraction, resuspended in chloroform and stored at −20 °C under nitrogen conditions. Pure bacterial and eukaryotic lipids, POPG, cardiolipin, LTA, POPE and POPC (Avanti Polar Lipid USA) were reconstituted in chloroform at 1 mg/ml and stored at −20 °C under nitrogen. Using a 50 µl Hamilton’s syringe, total MRSA lipid extract or pure lipids were spread at the surface of PBS creating a lipid monolayer at the air-water interface until an initial surface pressure of 30 ± 0.5 mN/m was reached. This corresponds to a lipid packing density theoretically equivalent to that of the outer leaflet of the cell membrane.[45] After 5–10 min of incubation allowing evaporation of the solvent and stabilization of the initial surface pressure, peptides were injected into the PBS (pH 7.4, volume 800 µl) sub-phase using a 10 µl Hamilton syringe. The variation of the surface pressure caused by peptide injection was then continuously monitored using a fully automated microtensiometer (µTROUGH SX, Kibron Inc., Helsinki, Finland) until reaching equilibrium (maximal surface pressure increase usually obtained after 15–25 min). Critical pressure of insertion of each peptide in the different lipids was also determined by changing the initial pressure of lipid monolayer (from 10 and 30 mN/m) and measuring the variation of pressure caused by the injection of peptide (at 1 µg/ml final concentration). All experiments were carried out in a controlled atmosphere at 20 °C ± 1 °C and data were analyzed using the Filmware 2.5 program (Kibron Inc., Helsinki, Finland). Variation of surface pressure was plotted as a function of initial surface pressure and critical pressure of insertion was calculated as the theoretical value of initial pressure of lipid monolayer not permissive to peptide insertion, i.e., a variation of pressure equal to 0 mN/m. The accuracy of the system under our experimental conditions was determined to be ± […] for surface pressure measurements.

[4] = tested on: S. aureus MRSA ATCC 33591; assay: Neutropenic mouse MRSA thigh infection model; format: in vivo, Staphylococcus aureus; settings: neutropenic male ICR mice; 10 mg/kg IV once or twice (2 h or 2 and 8 h post infection)
Experimental: In the thigh infection model, using neutropenic mice,[25] groups of five male ICR mice weighing 22 ± 2 g were inoculated intramuscularly (IM) with S. aureus MRSA, ATCC 33591 (1.57 × 10^5 CFU/mouse (0.1 ml/thigh)) in the right thigh. Lynronne-1, Lynronne-2 and Lynronne-3 at 10 mg/kg were intravenously (IV) administered once 2 h post infection or twice 2 and 8 h post-infection. The reference substance, vancomycin, was also intravenously injected 2 and 8 h post-infection at 10 and 30 mg/kg. Test animals were sacrificed 26 h after inoculation and the infected thighs were excised and the bacterial burden (CFU/gram) was determined.

Substance	MIC (E. coli K12 [1]) [mg/L]	IC75 values indicating activity classes, E. coli (E. coli K12 [2])	IC75 values indicating activity classes, Sal. typhimurium (Sal. typhimurium)	IC75 values indicating activity classes, P. aeruginosa H1001 (P. aeruginosa H1001)	Resistance acquisition during serial passage (MRSA strains)	Cytotoxic activity (HUVEC and HepG2 cells)	Interaction with pure lipids [3]	Affinity for lipids by critical pressure of insertion ([3]; initial pressure varied 10 to 30 mN/m)	Antimicrobial effect compared to the vehicle/control group (0.9% NaCl) [4]	total growth inhibition (TGI) (HUVEC and HepG2 cells) [mg/L]
HLRRINKLLTRIGLYRHAFG-NH2 [Lynronne-2]	64	0.09	0.09	0.14	failed to produce mutants that were resistant	no cytotoxic activity	preferentially interact with lipids specific to bacteria	highest affinity for LTA	not associated with any significant antimicrobial effects	
LPRRNRWSKIWKKVVTVFS-NH2 [Lynronne-1]	32	0.06	0.24	0.14	failed to produce mutants that were resistant		preferentially interact with lipids specific to bacteria		not associated with any significant antimicrobial effects	67.1
NRFTARFRRTPWRLCLQFRQ-NH2 [Lynronne-3]	64	0.16	0.41	0.54	failed to produce mutants that were resistant		preferentially interact with lipids specific to bacteria		not associated with any significant antimicrobial effects	61.2
